The text below walks through data of US20090028888A1, “Cancer Antigen Mage-A9 and Uses Thereof” (priority 2005, published 2009).

One assay relates to CT genes. Particulars: cited from earlier work; for expression of CT genes, combination with 5-AZA-DC: HDAC inhibitor combined with 5-AZA-DC.
Assay [1] deals with MAGE-A9 gene expression in bladder cancer cell lines. Kind of assay: RT-PCR analysis of MAGE-A9 gene expression induction in bladder cancer cell lines. The conditions noted are these: MGH-U3, 5637 and VMCUB-3; 1 μM 5-AZA-DC alone, 96 hours.

For the compound `Nc1ncn([C@H]2C[C@H](O)[C@@H](CO)O2)c(=O)n1` [5-AZA-DC, 5-aza-2′-deoxycytidine], in the assay with CT genes (single agent), the “induction of the expression of several CT genes” value is reported as “potent inducers”. Further, the “MAGE-A9 mRNA induction” value in assay [1] is “strongly induced”.

With `CC(/C=C/C(=O)NO)=C\[C@@H](C)C(=O)c1ccc(N(C)C)cc1` [trichostatin A], the “expression of CT genes, combination with 5-AZA-DC” value in the assay with CT genes was “stronger expression”.

As for `C/C=C1\NC(=O)[C@H]2CSSCC/C=C/[C@H](CC(=O)N[C@H](C(C)C)C(=O)N2)OC(=O)[C@H](C(C)C)NC1=O` [depsipetide], in the assay with CT genes, the “expression of CT genes, combination with 5-AZA-DC” value was “stronger expression”.
